Experimental data as given in patent US9605041B2, “Regulatory proteins and inhibitors” (INTRA-CELLULAR THERAPIES, INC., priority 2009, dated 2017).
Entries after “also recorded” stand apart in the source; their conditions may differ.

How the values were obtained:
gSAP = target: T1, gSAP (Mus musculus, UniProt Q3TCV3); assay: siRNA knockdown of gSAP in neuroblastoma cells overexpressing APP695, gSAP level and Aβ; type: cell-based
T1 construct: pulse-chase labeling of endogenous gSAP in N2a cells; endogenous in cells; host or cells: Neuroblastoma 2a cells stably overexpressing APP695
T1 sequence (Q3TCV3 738-858 limits assumed): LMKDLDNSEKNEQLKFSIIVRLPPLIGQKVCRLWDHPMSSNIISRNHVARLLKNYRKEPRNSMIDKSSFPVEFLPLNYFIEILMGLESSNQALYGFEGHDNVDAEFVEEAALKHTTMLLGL
Description: For cellular gSAP knockdown experiments, small interfering RNA (siRNA) of gSAP is purchased from Dharmacon Inc. The sequences of the siRNA used are as follow: sense sequence: [NT]; antisense sequence: 5'-[NT] Neuroblastoma 2a cell line stably overexpressing APP695 is transfected with siRNA using DharmaFect 2 reagent at a concentration of 50 nM following instructions provided by the manufacturer. […] To assay Aβ, the medium is removed after 48 h of transfection and replaced with Opti-MEM for 3 h incubation. Aβ is then immunoprecipitated from conditioned medium using the 4G8 antibody. Quantitation of Aβ levels in the conditioned medium is also assessed using Aβ40 and Aβ42 ELISA kits (Invitrogen). The procedures are carried out according to the manufacturer's instructions.

Aβ production = conditions: Netzer et al. 2003; cited from earlier work
gSAP (16 kDa band) = target: T2, gSAP (16 kDa band) (Homo sapiens, UniProt A4D1B5); assay: Affinity capture on immobilized biotin-imatinib beads, silver staining; type: binding; conditions: HEK293 cell lysates, SDS-PAGE
T2 construct: the 16 kDa band is identified as the C-terminal domain of gSAP by MS/MS mass spectrometry; endogenous in cells; host or cells: CHAPSO-solubilized membrane extract of HEK293 cells
T2 sequence (A4D1B5 734-854 limits assumed): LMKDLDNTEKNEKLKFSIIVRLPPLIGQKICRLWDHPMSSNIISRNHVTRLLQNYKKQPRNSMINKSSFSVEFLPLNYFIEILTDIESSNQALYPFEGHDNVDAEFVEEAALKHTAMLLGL
Description: After cell debris is cleared by centrifugation at 1,000 g for 5 mins, the supernatant is subjected to ultracentrifugation at 100,000 g for 1 h. The membrane pellet is then solubilized on ice in 50 mM Hepes, 150 mM NaCl, 5 mM MgCl2, 5 mM CaCl2, and 1% CHAPSO containing protease inhibitors (Roche Inc. cat#04 693 132 001) for 1 h and subject to ultracentrifugation for 1 h at 100,000 g. The soluble membrane extracts are incubated with Myonen™ streptavidin T1 beads (cat#656-01, Invitrogen) containing bound active biotin-imatinib for 3 hr at 4° C. Subsequently, the beads are washed three times with lysate buffer. Bound proteins are eluted with tricine SDS-PAGE sample buffer and separated on 10-20% tris-tricine gels. For immunoblotting, the gel is then transferred to PVDF membrane and probed with γ-secretase antibodies: PS1 antibody (cat#529592) and Pen-2 antibody (cat#NE1008) are from EMD Biosciences and nicastrin antibody is from BD Transduction Laboratories (cat#612290). Silver staining is used to identify protein bands in SDS-PAGE gels. The ˜16 kDa band is excised, trypsinized, and sequenced by tandem MS/MS mass spectrometry.
Endogenous γ-secretase components are detected by specific antibodies to Nicastrin, PS1-CTF and Pen-2. Photoactivatible ^125I and ^3H-G01 are used to label membrane preparations or intact HEK293 cells, respectively. […]

Abl kinase [1] = target: T3, Abl kinase (Homo sapiens, UniProt P00519); assay: Kinase profiling (Millipore standard assay), Abl kinase
T3 sequence (P00519 whole entry): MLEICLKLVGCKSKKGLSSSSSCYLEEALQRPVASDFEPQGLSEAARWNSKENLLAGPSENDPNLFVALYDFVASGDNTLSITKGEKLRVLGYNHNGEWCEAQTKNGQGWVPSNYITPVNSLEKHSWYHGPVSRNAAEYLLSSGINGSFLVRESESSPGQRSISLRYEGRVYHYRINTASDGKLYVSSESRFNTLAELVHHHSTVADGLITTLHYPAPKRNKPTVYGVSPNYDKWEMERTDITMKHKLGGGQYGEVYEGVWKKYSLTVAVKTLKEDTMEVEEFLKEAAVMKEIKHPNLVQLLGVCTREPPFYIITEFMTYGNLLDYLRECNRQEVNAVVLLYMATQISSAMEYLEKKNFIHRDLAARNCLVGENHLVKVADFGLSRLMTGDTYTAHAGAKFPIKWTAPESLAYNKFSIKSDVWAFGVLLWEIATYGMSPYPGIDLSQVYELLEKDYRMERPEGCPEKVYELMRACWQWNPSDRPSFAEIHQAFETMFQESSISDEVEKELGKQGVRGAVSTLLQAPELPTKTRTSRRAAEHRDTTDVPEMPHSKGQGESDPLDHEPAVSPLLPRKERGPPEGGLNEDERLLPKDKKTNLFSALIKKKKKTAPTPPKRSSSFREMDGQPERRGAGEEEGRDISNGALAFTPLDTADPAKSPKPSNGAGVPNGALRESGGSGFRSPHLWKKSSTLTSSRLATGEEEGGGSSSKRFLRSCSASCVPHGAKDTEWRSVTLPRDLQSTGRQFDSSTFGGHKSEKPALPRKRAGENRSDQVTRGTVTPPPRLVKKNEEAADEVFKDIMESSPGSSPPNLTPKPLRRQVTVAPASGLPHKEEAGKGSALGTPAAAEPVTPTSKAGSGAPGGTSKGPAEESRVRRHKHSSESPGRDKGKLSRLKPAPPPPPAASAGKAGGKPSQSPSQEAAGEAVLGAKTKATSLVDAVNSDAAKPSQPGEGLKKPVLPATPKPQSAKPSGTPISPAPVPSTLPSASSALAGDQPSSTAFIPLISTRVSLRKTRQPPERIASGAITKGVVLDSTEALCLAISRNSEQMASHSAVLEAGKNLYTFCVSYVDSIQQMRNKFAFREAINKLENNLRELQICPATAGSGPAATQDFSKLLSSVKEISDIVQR

PDGF receptor = assay: Kinase profiling (Millipore standard assay), PDGF receptor; conditions: ATP=45 μM
γ-secretase = target: T4, γ-secretase (Homo sapiens, UniProt P49768); assay: In vitro γ-secretase assay, membranes from HEK293 cells with APP-β-CTF; type: biochemical
T4 construct: Membrane pellets are prepared from HEK293 cells transfected with APP-β-CTF (CT-100) as described above; endogenous in cells; host or cells: membranes of HEK293 cells transfected with APP-β-CTF (CT-100); gSAP-16K added from BL21 DE3 E. coli
Description: Membrane pellets are prepared from HEK293 cells transfected with APP-β-CTF (CT-100) as described above, and the membranes are washed with assay buffer (10 mM Hepes, 140 mM KOAc, 2.5 mM MgOAc, 0.1 mM CaCl2, 1 mM ATP, pH 7.2) and pelleted at 100,000 g for 30 min at 4° C. Recombinant gSAP-16K (aa733-854 of the human gSAP) is expressed and purified from BL21 DE3 E. coli. The membranes are resuspended in 200 μl of assay buffer with 2 μg recombinant gSAP-16K or the same amount of BSA as control. A parallel system with 1 μM L685,458 (γ-secretase inhibitor) is also used as a control. The membrane suspension is pre-incubated at 4° C. for 1 hr and then incubated for 2 hr at 37° C. to allow in vitro generation of Aβ. The membranes are solubilized in ¼ volume of 200 mM Tris, pH 7.8, 760 mM NaCl, 24 mM EDTA, 10% Triton X-100, and insoluble material is removed by centrifugation at 10,000 g for 20 min. Aβ is immunoprecipitated from the lysate using 4G8 antibody, separated on 10-20% Tris-tricine gel, transferred to PVDF membrane, and subjected to autoradiography using Kodak MR film.

Abl kinase [2] = target: T3, Abl kinase; assay: Ki versus Abl kinase; type: biochemical
panel of 40 kinases = assay: Panel of 40 kinases; type: biochemical; conditions: data not shown
Aβ in N2a cell system = assay: Total human Aβ in the N2a cell system (sandwich ELISA, Western blot); type: cell-based
Description: Total human Aβ in the N2a cell system is measured in a standard sandwich ELISA by using a specific monoclonal antibody (6E10, Signet Laboratories) to capture the Aβ40 and Aβ42 and an antibody to Aβ17-24 (4G8, Signet Laboratories, Dedham, Mass.) for detection. Cell culture medium (5 μL/well) is diluted to 100 μL in phosphate-buffered saline/0.2% Tween 20 and loaded onto ELISA plates. For Western blot assays, cell medium is diluted with 2× tricine sodium dodecyl sulfate sample buffer, and heated at 95° C. for 5 min. […] Aβ is detected with antibody 4G8 and an Alexa 680-conjugated rabbit anti-mouse secondary and scanned with a LiCor Odyssey infrared scanner.

mouse ΔE-Notch cleavage = assay: ΔE-Notch cleavage in HEK293 cells incubated with test compounds; type: cell-based, human; conditions: 4 h incubation, DAPT positive control
Description: For detection of Notch cleavage, HEK293 human embryonic kidney cells are transfected with mouse ΔE-Notch cDNA with a C-terminal myc tag. For analysis of ΔE-Notch cleavage, cells are incubated with test compounds for 4 h. Cell extracts are prepared by lysing cells in cell lysis buffer (50 mM Tris, pH7.5, 10 mM NaCl, 5 mM EGTA, 1 mM EDTA and complete protease inhibitors (Roche Diagnostics, Indianapolis, Ind.). Protein concentration is determined using Bradford protein detection reagent. Volume is adjusted with cell lysis buffer, then 4× sample loading buffer (Tris-Tricine gel loading buffer) is added, samples are heated 5 min at 95° C., and equivalent amounts of cell protein for each treatment are loaded onto a 10% Bis-Tris gel. C-terminal Notch species are detected with monoclonal anti-c-myc antibody 9E10 (Roche Diagnostics) and fluorescent goat anti-mouse secondary antibody. Fluorescent antibody is quantitated via LiCor Odyssey infrared fluorescence detector.

gSAP-16K (16 kDa band) = target: T5, gSAP-16K (16 kDa band) (Homo sapiens, UniProt A4D1B5); assay: In vitro and intact cell photolabeling with 125I-G01 / 3H-G01; type: binding; conditions: 20 nM 125I-G01 on membranes or 3H-G01 on intact cells, photolysis
T5 construct: is rapidly processed into a ˜16 kDa C-terminal fragment (gSAP-16K); endogenous in cells; host or cells: HEK293 membrane preparations (125I-G01) and intact HEK293 cells (3H-G01)
T5 sequence (A4D1B5 733-854): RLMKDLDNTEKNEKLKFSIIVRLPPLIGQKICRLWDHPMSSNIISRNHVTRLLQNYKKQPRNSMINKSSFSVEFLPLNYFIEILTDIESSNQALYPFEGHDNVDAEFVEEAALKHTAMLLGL
Description: For in vitro labeling, membrane pellets are prepared as described above and resuspended in 50 mM Hepes, pH 7.4, 150 mM NaCl, 5 mM MgCl2, 5 mM CaCl2. […] The bound material is eluted in SDS-tricine sample buffer and separated using 10-20% Tris-tricine gels, followed by transfer to PVDF membrane. The membrane is dried and exposed to Kodak MS film for autoradiography. For intact cell labeling, human embryonic kidney cells (HEK293) grown to ˜80% confluency (˜10^7 cells) are incubated with 0.1 μM ^3H-G01 in Opti-MEM for 2 hours in an incubator at 37° C., with 5% CO2 before being transferred to ice for an additional hour. Medium is removed and cells are washed twice with cold phosphate buffered saline (PBS), pH 7.4. […] The immunoprecipitate is washed 3 times with lysis buffer. The immuno-purified (IP) material is eluted with SDS sample buffer and product is separated using a 10-20% Tris-Tricine SDS-PAGE gel, transferred to PVDF membrane, and the membrane dried and exposed to Kodak MS film for autoradiography.
Endogenous γ-secretase components are detected by specific antibodies to Nicastrin, PS1-CTF and Pen-2. […] After lysis and immunoprecipitation with PS1 antibody, bound proteins are separated by 10-20% Tris-tricine SDS-PAGE.
Intact N2a cell labeling is performed by incubation with ^3H-G01. Cells are lysed with RIPA buffer and proteins were immunoprecipitated with gSAP antibody.

[3] = test system: Aβ production in Neuroblastoma 2a cells stably overexpressing human APP695; assay: Cellular Aβ production assay, incubation with G01 (4G8 immunoprecipitation, 6E10 blot); type: cell-based; conditions: 10 μM, 3 hr
Description: Neuroblastoma 2a cells stably overexpressing human APP695 are treated with 10 μM G01 for 3 hr. Cells treated with DMSO, or DMSO plus imatinib are used as controls. After 3 hr, conditioned medium is collected and Aβ immunoprecipitation is conducted using 4G8 antibody. The immunoprecipitated Aβ is separated on 10-20% Tris-tricine gel, transferred to PVDF membrane and detected by 6E10 antibody. […]

Molecule: Cc1ccc(NC(=O)c2ccc(CN3CCN(C)CC3)cc2)cc1Nc1nccc(-c2cccnc2)n1 [imatinib, reference compound]
- additional effect of imatinib on Aβ levels under gSAP siRNA knockdown (gSAP): not additive; also recorded: little or no additional effect
- production of Aβ (Aβ production): inhibits production of Aβ

Molecule: Cc1ccc(NC(=O)c2ccc(CN3CCN(C(=O)CCCC[C@@H]4SC[C@@H]5NC(=O)N[C@@H]54)CC3)cc2)cc1Nc1nccc(-c2cccnc2)n1 [IC200001]
- binding of the ~16 kDa band (gSAP) to the immobilized compound (gSAP (16 kDa band)): does not bind
- inhibitory activity toward Abl kinase (Abl kinase [1]; ATP=45 μM): no significant inhibitory activity
- inhibitory activity toward PDGF receptor (PDGF receptor): no significant inhibitory activity

Molecule: CC(C)C[C@H](NC(=O)[C@H](Cc1ccccc1)C[C@@H](O)[C@H](Cc1ccccc1)NC(=O)OC(C)(C)C)C(=O)N[C@@H](Cc1ccccc1)C(N)=O [L685,458, reference compound]
- Aβ production in the in vitro γ-secretase assay (γ-secretase; 1 μM): abolishes Aβ production

Molecule: siRNA: siRNA of gSAP, sense AUGCAGAGCUGGACGACAUUU, antisense 5′-P.AUGUCGUCCAGCUCUGCAUUU (5'-phosphate on antisense, further chemistry not given here)
- decrease of the level of Aβ (gSAP; gSAP siRNA knockdown): about 50%
- reduction of gSAP level (gSAP; siRNA 50 nM): 72±15%

Molecule: Cc1ncc(NC(=O)c2ccc(CC3CCN(C)CC3)cc2)cc1Nc1nccc(-c2ccccc2)n1 [N-(6-methyl-5-(4-phenylpyrimidin-2-ylamino)pyridin-3-yl)-4-((1-methylpiperidin-4-yl)methyl)benzamide]
- Ki (Abl kinase [2]): ~12 µM
- weaker activity versus Abl kinase compared to imatinib (Abl kinase [2]): 100 fold
- kinase inhibitory activity against a panel of 40 kinases (panel of 40 kinases): little kinase inhibitory activity
- concentrations that significantly lower Aβ (Aβ in N2a cell system): < 500 nM
- influence on NOTCH metabolism (mouse ΔE-Notch cleavage): do not influence NOTCH metabolism

Molecule: Cc1ccc(NC(=O)c2ccc(CN3CCN(CCNC(=O)CCCC[C@@H]4SC[C@@H]5NC(=O)N[C@@H]54)CC3)cc2)cc1Nc1nccc(-c2cccnc2)n1 [IC339239]
- IC50 (Abl kinase [1]): 0.146 µM
- IC50 (PDGF receptor; read-out: IC50 against PDGF receptor): 6.6 µM

Molecule: Cc1ccc(NC(=O)c2ccc(N=[N+]=[N-])cc2O)cc1Nc1nccc(-c2cccnc2)n1 [^3H-G01]
- photolabeling of the 16 kDa protein (gSAP-16K) (gSAP-16K (16 kDa band)): specifically labeled

Molecule: Cc1ccc(NC(=O)c2ccc(N=[N+]=[N-])cc2O)cc1Nc1nccc(-c2cccnc2)n1 [G01, 4-azido-2-hydroxy-N-(4-methyl-3-(4-(pyridin-3-yl)pyrimidin-2-ylamino)phenyl)benzamide]
- Aβ in conditioned medium compared to DMSO vehicle [3]: significantly reduces Aβ

B1: gSAP-16K: recombinant 16 kDa C-terminal fragment, aa 733-854 of human gSAP, expressed in E. coli (protein, UniProt A4D1B5 733-854, looked up, fragment)
chain: RLMKDLDNTEKNEKLKFSIIVRLPPLIGQKICRLWDHPMSSNIISRNHVTRLLQNYKKQPRNSMINKSSFSVEFLPLNYFIEILTDIESSNQALYPFEGHDNVDAEFVEEAALKHTAMLLGL
- stimulation of Aβ production (γ-secretase; 2 μg recombinant gSAP-16K added to membranes, BSA control): 2.4±0.3 fold
